According to US12384776B2, “Compounds and uses thereof” (Foghorn Therapeutics Inc., priority 2019, dated 2025):
pIC50: −log10 of the molar value.

How the values were obtained:
BRD9 bromodomain = BRD9 bromodomain (Homo sapiens (Human), UniProt Q9H8M2); test: BRD9 bromodomain TR-FRET competition binding assay
Method: Procedure: His-Flag-BRD9 (P133-K239; Swiss Prot Q9H8M2; SEQ ID NO:1 mgsshhhhhhenlyfq/gdykddddkgslevlfqg/[…] […]) was cloned, expressed, purified, and then treated with TEV protease. Cleaved His tag was removed by purification. The binding of a biotinylated small molecule ligand of BRD9 was assessed via the LANCE® TR-FRET platform (PerkinElmer), and the compounds were assayed for inhibitory activity against this interaction.
Results: A mixture of biotinylated-ligand and SureLight™ Allophycocyanin-Streptavidin (APC-SA, PerkinElmer AD0201) in 50 mM HEPES (pH 7.4), 50 mM NaCl, 1 mM TCEP (pH 7), 0.01% (v/v) Tween-20, 0.01% (w/v) bovine serum albumin was added to a white 384-well PerkinElmer Proxiplate Plus plate. DMSO or 3-fold serially diluted compounds were then added to the Proxiplate followed by addition of Flag-BRD9. After a 10-minute incubation at room temperature, Eu—W1024 anti-FLAG (PerkinElmer, AD0273) was added. The final reaction mixture that contained 3.75 nM biotinylated ligand, 3 nM Flag-BRD9, 7.5 nM SureLight™ Allophycocyanin-Streptavidin, and 0.2 nM Eu—W1024 anti-FLAG was incubated at room temperature for 90 minutes.
The plates were then read on a PerkinElmer Envision plate reader to determine the ratio of emission at 665 nm over 615 nm. […]

[1] = molecular target: Nanoluciferase-BRD9 fusion protein (3×FLAG-NLuc-BRD9) in SYO-1 cells (Homo sapiens (Human), UniProt Q9H8M2); test: SYO1 BRD9 NanoLuc degradation assay; format: cell-based; details: SYO-1 cells, 6 hours, Table 6A
How it was run: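 Stable SYO-1 line expressing 3×FLAG-NLuc-BRD9, treated with 10-point 3-fold dilutions (top 1 μM final) for 6 hours. Nanoluciferase luminescence read with Nano-Glo reagent. % inhibition relative to DMSO (high control) and 1 μM reference BRD9 degrader (low control).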

Chain of Nanoluciferase-BRD9 fusion protein (3×FLAG-NLuc-BRD9) in SYO-1 cells (Q9H8M2 whole entry, the tested form may be a part): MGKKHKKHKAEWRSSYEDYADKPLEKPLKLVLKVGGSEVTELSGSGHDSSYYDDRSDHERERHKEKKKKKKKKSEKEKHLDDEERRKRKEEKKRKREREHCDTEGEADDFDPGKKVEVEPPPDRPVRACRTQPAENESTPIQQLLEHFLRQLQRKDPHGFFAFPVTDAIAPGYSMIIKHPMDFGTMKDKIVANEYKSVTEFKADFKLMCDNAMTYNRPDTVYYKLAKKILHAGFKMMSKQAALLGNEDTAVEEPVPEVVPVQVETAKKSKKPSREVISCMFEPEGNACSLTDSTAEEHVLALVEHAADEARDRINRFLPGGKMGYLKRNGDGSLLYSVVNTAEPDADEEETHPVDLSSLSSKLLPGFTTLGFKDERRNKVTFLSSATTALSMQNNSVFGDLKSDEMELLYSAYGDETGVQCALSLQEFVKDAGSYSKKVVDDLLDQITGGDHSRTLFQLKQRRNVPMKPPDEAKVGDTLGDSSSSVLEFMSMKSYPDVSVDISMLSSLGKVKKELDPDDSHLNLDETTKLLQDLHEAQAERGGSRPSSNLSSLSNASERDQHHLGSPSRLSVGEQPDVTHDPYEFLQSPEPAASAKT
Chain of BRD9 bromodomain (Q9H8M2 133-239): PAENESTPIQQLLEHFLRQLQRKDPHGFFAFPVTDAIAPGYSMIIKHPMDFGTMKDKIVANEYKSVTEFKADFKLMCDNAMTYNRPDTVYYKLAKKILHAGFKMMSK

Compound	pIC50 (BRD9 bromodomain)	pIC50 [1]
CNC(=O)N1CCc2c(-c3cc(OC)c(CN4CCC(CCN5CCN(c6ccc7c(c6)C(=O)N(C6CCC(=O)NC6=O)C7=O)CC5)CC4)c(OC)c3)cn(C)c(=O)c2C1 (stereo not drawn) [Compound D28, 5-(4-[[4-(2-[4-[2-(2,6-dioxopiperidin-3-yl)-1,3-dioxoisoindol-5-yl]piperazin-1-yl]ethyl)piperidin-1-yl]methyl]-3,5-dimethoxyphenyl)-N,7-dimethyl-8-oxo-3,4-dihydro-1H-2,7-naphthyridine-2-carboxamide formic acid]	> 8.00	> 8.00
COc1cc(-c2cn(C)c(=O)c3c2CCN(C(=O)CCCCCOc2cccc4c2C(=O)N(C2CCC(=O)NC2=O)C4=O)C3)cc(OC)c1CN(C)C (stereo not drawn) [Compound D20, ([4-[7-(6-[[2-(2,6-dioxopiperidin-3-yl)-1,3-dioxo-2,3-dihydro-1H-isoindol-4-yl]oxy]hexanoyl)-2-methyl-1-oxo-1,2,5,6,7,8-hexahydro-2,7-naphthyridin-4-yl]-2,6-dimethoxyphenyl]methyl)(methyl)aminyl]	< 6.00	< 6.00
COc1cc(-c2cn(C)c(=O)c3c2CN(C(=O)N(C)C)CC3)cc(OC)c1CN(C)CCOCCN1CCN(c2ccc3c(c2)C(=O)N(C2CCC(=O)NC2=O)C3=O)CC1 (stereo not drawn) [Compound D33, 8-(4-(((2-(2-(4-(2-(2,6-dioxopiperidin-3-yl)-1,3-dioxoisoindolin-5-yl)piperazin-1-yl)ethoxy)ethyl)(methyl)amino)methyl)-3,5-dimethoxyphenyl)-N,N,6-trimethyl-5-oxo-3,4,5,6-tetrahydro-2,6-naphthyridine-2 (1H)-carboxamide formic acid]	< 8.00	< 6.00
COc1cc(-c2cn(C)c(=O)c3c2CCN(C(=O)CCCCCCCCNc2cccc4c2C(=O)N(C2CCC(=O)NC2=O)C4=O)C3)cc(OC)c1CN(C)C (stereo not drawn) [Compound D19, 4-[[9-(5-[4-[(dimethylamino)methyl]-3,5-dimethoxyphenyl]-7-methyl-8-oxo-1,2,3,4,7,8-hexahydro-2,7-naphthyridin-2-yl)-9-oxononyl]amino]-2-(2,6-dioxopiperidin-3-yl)-2,3-dihydro-1H-isoindole-1,3-dione]	< 6.00	< 6.00
COc1cc(-c2cn(C)c(=O)c3c2CCN(C(=O)NCCOCCNc2ccc4c(c2)C(=O)N(C2CCC(=O)NC2=O)C4=O)C3)cc(OC)c1CN(C)C (stereo not drawn) [Compound D21, 5-[4-[(dimethylamino)methyl]-3,5-dimethoxyphenyl]-N-[2-(2-[[2-(2,6-dioxopiperidin-3-yl)-1,3-dioxoisoindol-5-yl]amino]ethoxy)ethyl]-7-methyl-8-oxo-3,4-dihydro-1H-2,7-naphthyridine-2-carboxamide formic acid]	< 8.00	< 8.00
CNC(=O)N1CCc2c(-c3cc(OC)c(CN4CC(NC(=O)CCCCCOc5cccc6c5C(=O)N(C5CCC(=O)NC5=O)C6=O)C4)cc3OC)cn(C)c(=O)c2C1 (stereo not drawn) [Compound D15, 5-(4-[[3-(6-[[2-(2,6-Dioxopiperidin-3-yl)-1,3-dioxoisoindol-4-yl]oxy]hexanamido)azetidin-1-yl]methyl]-2,5-dimethoxyphenyl)-N,7-dimethyl-8-oxo-3,4-dihydro-1H-2,7-naphthyridine-2-carboxamide formic acid]	< 8.00	< 7.00
COc1cc(-c2cn(C)c(=O)c3c2CCN(C(=O)NCCCCCCCC(=O)N[C@H](C(=O)N2C[C@H](O)C[C@H]2C(=O)NCc2ccc(-c4scnc4C)cc2)C(C)(C)C)C3)cc(OC)c1CN(C)C [Compound D37, (2S,4R)-1-[(2S)-2-[8-(5-[4-[(dimethylamino)methyl]-3,5-dimethoxyphenyl]-7-methyl-8-oxo-3,4-dihydro-1H-2,7-naphthyridine-2-carbonylamino)octanamido]-3,3-dimethylbutanoyl]-4-hydroxy-N-[[4-(4-methyl-1,3-thiazol-5-yl)phenyl]methyl]pyrrolidine-2-carboxamide formic acid]	> 8.00	< 8.00
COc1cc(-c2cn(C)c(=O)c3c2CN(C(=O)NCCOCCOCCNc2cccc4c2C(=O)N(C2CCC(=O)NC2=O)C4=O)CC3)cc(OC)c1CN(C)C (stereo not drawn) [Compound D23, 8-[4-[(dimethylamino)methyl]-3,5-dimethoxyphenyl]-N-[2-[2-(2-[[2-(2,6-dioxopiperidin-3-yl)-1,3-dioxoisoindol-4-yl]amino]ethoxy)ethoxy]ethyl]-6-methyl-5-oxo-3,4-dihydro-1H-2,6-naphthyridine-2-carboxamide formic acid]	< 7.00	< 6.00
COc1cc(-c2cn(C)c(=O)c3c2CCN(C(=O)NCCCCCOc2cccc4c2C(=O)N(C2CCC(=O)NC2=O)C4=O)C3)cc(OC)c1CN(C)C (stereo not drawn) [Compound D18, 5-[4-[(dimethylamino)methyl]-3,5-dimethoxyphenyl]-N-(5-[[2-(2,6-dioxopiperidin-3-yl)-1,3-dioxoisoindol-4-yl]oxy]pentyl)-7-methyl-8-oxo-3,4-dihydro-1H-2,7-naphthyridine-2-carboxamide]	< 8.00	< 8.00
COc1cc(-c2cn(C)c(=O)c3c2CCN(C(=O)NCCN(C)CCOCCOc2cccc4c2C(=O)N(C2CCC(=O)NC2=O)C4=O)C3)cc(OC)c1CN(C)C (stereo not drawn) [Compound D30, 5-[4-[(dimethylamino)methyl]-3,5-dimethoxyphenyl]-N-(2-[[2-(2-[[2-(2,6-dioxopiperidin-3-yl)-1,3-dioxoisoindol-4-yl]oxy]ethoxy)ethyl](methyl)amino]ethyl)-7-methyl-8-oxo-3,4-dihydro-1H-2,7-naphthyridine-2-carboxamide formic acid]	< 7.00	< 6.00
COc1cc(-c2cn(C)c(=O)c3c2CCN(C(=O)NCCCCCOc2ccc4c(c2)C(=O)N(C2CCC(=O)NC2=O)C4=O)C3)cc(OC)c1CN(C)C (stereo not drawn) [Compound D22, formic acid]	> 8.00	> 8.00
CNC(=O)N1CCc2c(-c3cc(OC)c(CN4CCC5(CC4)CN(C(=O)CCCCOc4ccc6c(c4)C(=O)N(C4CCC(=O)NC4=O)C6=O)CCO5)c(OC)c3)cn(C)c(=O)c2C1 (stereo not drawn) [Compound D31, 5-(4-((4-(5-((2-(2,6-dioxopiperidin-3-yl)-1,3-dioxoisoindolin-5-yl)oxy)pentanoyl)-1-oxa-4,9-diazaspiro[5.5]undecan-9-yl)methyl)-3,5-dimethoxyphenyl)-N,7-dimethyl-8-oxo-3,4,7,8-tetrahydro-2,7-naphthyridine-2 (1H)-carboxamide formic acid]	> 8.00	< 8.00
CCCCNC(=O)N1CCc2c(-c3cc(OC)c(CN(C)C)c(OC)c3)cn(C)c(=O)c2C1 [Compound B7, N-butyl-5-(4-((dimethylamino)methyl)-3,5-dimethoxyphenyl)-7-methyl-8-oxo-3,4,7,8-tetrahydro-2,7-naphthyridine-2 (1H)-carboxamide]	> 8.00	
COc1cc(-c2cn(C)c(=O)c3c2CCN(C(=O)NCCOCCNc2ccc4c(c2)C(=O)N(C2CCC(=O)NC2=O)C4=O)C3)c(OC)cc1CN(C)C (stereo not drawn) [Compound D32, 5-[4-[(dimethylamino)methyl]-2,5-dimethoxyphenyl]-N-[2-(2-[[2-(2,6-dioxopiperidin-3-yl)-1,3-dioxoisoindol-5-yl]amino]ethoxy)ethyl]-7-methyl-8-oxo-3,4-dihydro-1H-2,7-naphthyridine-2-carboxamide formic acid]	< 7.00	< 7.00
COc1cc(-c2cn(C)c(=O)c3c2CCN(C(=O)NCCCCCCCCCC(=O)N[C@H](C(=O)N2C[C@H](O)C[C@H]2C(=O)NCc2ccc(-c4scnc4C)cc2)C(C)(C)C)C3)cc(OC)c1CN(C)C [Compound D38, (2S,4R)-1-[(2S)-2-[10-(5-[4-[(dimethylamino)methyl]-3,5-dimethoxyphenyl]-7-methyl-8-oxo-3,4-dihydro-1H-2,7-naphthyridine-2-carbonylamino)decanamido]-3,3-dimethylbutanoyl]-4-hydroxy-N-[[4-(4-methyl-1,3-thiazol-5-yl)phenyl]methyl]pyrrolidine-2-carboxamide]	> 8.00	< 8.00
COc1cc(-c2cn(C)c(=O)c3c2CCN(C(=O)NCCOCCNc2cccc4c2C(=O)N(C2CCC(=O)NC2=O)C4=O)C3)cc(OC)c1CN(C)C (stereo not drawn) [Compound D17, 5-[4-[(dimethylamino)methyl]-3,5-dimethoxyphenyl]-N-[2-(2-[[2-(2,6-dioxopiperidin-3-yl)-1,3-dioxoisoindol-4-yl]amino]ethoxy)ethyl]-7-methyl-8-oxo-3,4-dihydro-1H-2,7-naphthyridine-2-carboxamide formic acid]	< 8.00	< 8.00
CCCCNC(=S)N1CCc2c(-c3cc(OC)c(CN(C)C)c(OC)c3)cn(C)c(=O)c2C1 [Compound B20, N-butyl-5-(4-((dimethylamino)methyl)-3,5-dimethoxyphenyl)-7-methyl-8-oxo-3,4,7,8-tetrahydro-2,7-naphthyridine-2 (1H)-carbothioamide]	< 8.00	
COc1cc(-c2cn(C)c(=O)c3c2CCN(C(C)=O)C3)cc(OC)c1CN(C)C [Compound B14, 7-acetyl-4-[4-[(dimethylamino)methyl]-3,5-dimethoxyphenyl]-2-methyl-1,2,5,6,7,8-hexahydro-2,7-naphthyridin-1-one]	< 6.00	
